The record followed here is ChEMBL document CHEMBL1201862, “PubChem BioAssay data set” (2004).

Among the test systems are 786-0; A549; ACHN; EKVX; HCC 2998; HL-60; LOX IMVI; Malme-3M; NCI-H23; OVCAR-3; OVCAR-5; OVCAR-8; SK-MEL-28; SK-MEL-2; SNB-19; U-251; UACC-62.
What all share (test): growth of human tumour cells (NCI), 48 h

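A five-concentration, 48-hour dose response in 96-well plates underlies each endpoint, interpolated linearly between surrounding concentrations. The concentration for 50% growth inhibition is given as GI50.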 Active and inactive are the calls of the source. No stated cut-off is given here; in the data, active = GI50 up to about 1.1 µM and inactive = higher. A value given as a limit tells only on which side of the number the result lay.

As for `CCN1CCC(O)(c2ccc(Cl)c(Cl)c2)C(C(=O)c2ccc(Cl)c(Cl)c2)C1` (stereo unspecified), the GI50 in the test with 786-0 is 15.4 µM (inactive); in the test on A549 it was 19.4 µM (inactive); with ACHN it was 13.3 µM (inactive); in the test on EKVX it was 18.5 µM (inactive); in the test with HCC 2998, 19.9 µM (inactive); in the test with HL-60, 15.2 µM (inactive). Further, the GI50 with LOX IMVI was 17.8 µM (inactive); in the test with Malme-3M it was 18.2 µM (inactive); in the test with NCI-H23, 19.7 µM (inactive); with OVCAR-3 it was 13.7 µM (inactive); with OVCAR-5, 19.2 µM (inactive); with OVCAR-8 it was 19.8 µM (inactive). Further, the GI50 is 18.2 µM (inactive) in the test on SK-MEL-28; 17.3 µM (inactive) in the test on SK-MEL-2; 19.7 µM (inactive) in the test with SNB-19; 18 µM (inactive) in the test on U-251; 17 µM (inactive) with UACC-62.

Consider `CN(C)CCNC(=O)c1ccc(Cl)c2c(Nc3ccc(S(N)(=O)=O)cc3)c3ccccc3nc12`, for which the GI50 in the test on 786-0 is 1.55 µM (inactive); in the test with A549 it was 2.64 µM (inactive); with ACHN it was 1.67 µM (inactive); in the test with EKVX it was 5.62 µM (inactive); in the test on HCC 2998, 3.03 µM (inactive); in the test with HL-60 it was 0.553 µM (active). In addition, the GI50 in the test with LOX IMVI is 0.594 µM (active); in the test on Malme-3M it was 3.46 µM (inactive); with NCI-H23 it was 2.97 µM (inactive); in the test on OVCAR-3 it was 2.42 µM (inactive); in the test on OVCAR-5, 2.95 µM (inactive); in the test with OVCAR-8, 0.65 µM (active). Besides, the GI50 was 2.67 µM (inactive) in the test with SK-MEL-28; 1.75 µM (inactive) in the test on SK-MEL-2; 1.84 µM (inactive) with SNB-19; 2.16 µM (inactive) with U-251; 1.56 µM (inactive) in the test with UACC-62.

With `Nn1c(S)nnc1N/N=C1/C(=O)Nc2ccccc21`, the GI50 in the test on 786-0 was > 100 µM (inactive); in the test with A549, 83.2 µM (inactive); in the test on ACHN, 83.8 µM (inactive); in the test on EKVX it was > 100 µM (inactive); in the test with HCC 2998, > 100 µM (inactive); with HL-60, 94.4 µM (inactive). Besides, the GI50 in the test with LOX IMVI was 35.4 µM (inactive); with Malme-3M, > 100 µM (inactive); in the test on NCI-H23, 16.9 µM (inactive); in the test on OVCAR-3, 80.4 µM (inactive); in the test with OVCAR-5 it was > 100 µM (inactive); in the test with OVCAR-8, 49.5 µM (inactive). In addition, the GI50 in the test on SK-MEL-28 is 33.7 µM (inactive); in the test with SK-MEL-2, > 100 µM (inactive); in the test with SNB-19, 55.2 µM (inactive); in the test on U-251, 58.3 µM (inactive); in the test with UACC-62, 71.8 µM (inactive).

For the molecule `COC1C(OC(=O)c2ccc(C)[nH]2)C(O)C(Oc2ccc3c(O)c(NC(=O)c4c[nH]c(C(=O)Nc5c(O)c6ccc(OC7OC(C)(C)C(OC)C(OC(=O)c8ccc(C)[nH]8)C7O)c(C)c6oc5=O)c4C)c(=O)oc3c2C)OC1(C)C` (stereo unspecified), the GI50 is 2.1 µM (inactive) in the test on 786-0; 3.39 µM (inactive) in the test on A549; 2.53 µM (inactive) with ACHN; 3.82 µM (inactive) in the test with EKVX; 2.59 µM (inactive) in the test with HCC 2998; 1.83 µM (inactive) with HL-60. Further, the GI50 in the test with LOX IMVI is 2.77 µM (inactive); with Malme-3M, 2.09 µM (inactive); in the test on NCI-H23, 1.24 µM (inactive); in the test with OVCAR-3, 3.26 µM (inactive); in the test with OVCAR-5 it was 2.84 µM (inactive); in the test with OVCAR-8 it was 2.81 µM (inactive). Also, the GI50 in the test with SK-MEL-28 is 0.475 µM (active); in the test on SK-MEL-2, 2.28 µM (inactive); with SNB-19, 0.693 µM (active); in the test on U-251, 0.597 µM (active); in the test on UACC-62, 0.724 µM (active).

On to `O=C(CCN1CCN(c2ccccc2)CC1)N1CCc2c([nH]c3ccccc23)C1c1cccnc1` (stereo unspecified), for which the GI50 with 786-0 was 15.4 µM (inactive); in the test on A549 it was 14.8 µM (inactive); in the test with ACHN it was 20 µM (inactive); in the test on EKVX it was 16.9 µM (inactive); in the test with HCC 2998, 21.7 µM (inactive); in the test on HL-60 it was 14.3 µM (inactive). Moreover, the GI50 with LOX IMVI is 16.1 µM (inactive); with Malme-3M it was 19.1 µM (inactive); with NCI-H23, 21 µM (inactive); in the test with OVCAR-3 it was 16.7 µM (inactive); with OVCAR-5, 16.9 µM (inactive); in the test on OVCAR-8, 16.6 µM (inactive). Besides, the GI50 was 15.7 µM (inactive) in the test on SK-MEL-28; 16.3 µM (inactive) with SK-MEL-2; 23.3 µM (inactive) in the test with SNB-19; 16.4 µM (inactive) with U-251; > 10 µM (inactive) in the test with UACC-62.

For `CC12CCC([C@H](N3CCOCC3)/C1=N\OCCN1CCCC1)C2(C)C` (stereo partly specified), the GI50 with 786-0, with A549, in the test on ACHN, with EKVX, with HCC 2998 and with HL-60 was > 100 µM (inactive) throughout. The GI50 in the test with LOX IMVI, in the test with Malme-3M, with NCI-H23, in the test on OVCAR-3, in the test with OVCAR-5 and with OVCAR-8 was > 100 µM (inactive) each time. Also, the GI50 in the test on SK-MEL-28, with SK-MEL-2, in the test with SNB-19, in the test with U-251 and in the test with UACC-62 was > 100 µM (inactive) in each case.

As to `COc1cc(C(=O)C/C(CCC(=O)Nc2ccc(Cl)cc2Cl)=N/Nc2nnc(C)n2N)ccc1O`, the GI50 in the test on 786-0 is > 100 µM (inactive); in the test on A549 it was > 100 µM (inactive); in the test with ACHN, > 100 µM (inactive); with EKVX, 67.1 µM (inactive); in the test with HCC 2998 it was > 100 µM (inactive); in the test on HL-60, > 100 µM (inactive). In addition, the GI50 with LOX IMVI, with Malme-3M, in the test on NCI-H23, in the test with OVCAR-3, with OVCAR-5 and in the test with OVCAR-8 was > 100 µM (inactive) in each case. Besides, the GI50 in the test with SK-MEL-28, in the test with SK-MEL-2, with SNB-19, in the test on U-251 and with UACC-62 was > 100 µM (inactive) each time.

Turning to `C=CC/N=C1\NC(=O)C(CC(=O)Nc2ccc(C)cc2)S1` (stereo unspecified), the GI50 in the test on 786-0, with A549, in the test on ACHN, with EKVX, in the test with HCC 2998 and with HL-60 was > 100 µM (inactive) in each case. For the same molecule, the GI50 in the test on LOX IMVI, with Malme-3M, with NCI-H23, in the test with OVCAR-3, with OVCAR-5 and with OVCAR-8 was > 100 µM (inactive) each time. The GI50 in the test with SK-MEL-28, in the test on SK-MEL-2, in the test with SNB-19, in the test on U-251 and in the test on UACC-62 was > 100 µM (inactive) throughout.
